Values joined by “and” are separate entries in the source; they are usually repeats but may differ in a detail not shown here. Equal entries are not always repeated. Toxic doses and inconclusive results are not listed. The calls were made as follows: active = survival T/C of 150% or more; inactive = T/C below 125% in these data.
Tested on: BDF1 mice, P388 leukemia ip, median survival T/C
Test: NCI In Vivo Anticancer Drug Screen. Data for tumor model P388 Leukemia (intraperitoneal) in B6D2F1 (BDF1) mice
Conditions: endpoint: median survival time, higher = longer survival
Summary of the method: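 Each value expresses how treatment altered survival: treated-mouse outcome over vehicle-mouse outcome, both groups bearing the transplanted tumour.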

[1] = dose: 12.5 mg/kg/injection, schedule: Q01DX009 (ip), vehicle: Klucel (hydroxypropylcellulose) (HPC)
[2] = dose: 25.0 mg/kg/injection, schedule: Q01DX009 (ip), vehicle: saline
[3] = dose: 100.0 mg/kg/injection, schedule: Q04DX003 (ip), vehicle: saline
[4] = dose: 200.0 mg/kg/injection, schedule: Q04DX003 (ip), vehicle: saline
[5] = dose: 400.0 mg/kg/injection, schedule: Q04DX003 (ip), vehicle: saline
[6] = dose: 25.0 mg/kg/injection, schedule: Q01DX009 (ip), vehicle: saline with Tween-80
[7] = dose: 50.0 mg/kg/injection, schedule: Q01DX009 (ip), vehicle: saline with Tween-80
[8] = dose: 50.0 mg/kg/injection, schedule: Q01DX009 (ip), vehicle: Klucel (hydroxypropylcellulose) (HPC)
[9] = dose: 100.0 mg/kg/injection, schedule: Q01DX009 (ip), vehicle: Klucel (hydroxypropylcellulose) (HPC)
[10] = dose: 100.0 mg/kg/injection, schedule: Q04DX003 (ip), vehicle: Klucel (hydroxypropylcellulose) (HPC)
[11] = dose: 200.0 mg/kg/injection, schedule: Q04DX003 (ip), vehicle: Klucel (hydroxypropylcellulose) (HPC)
[12] = dose: 400.0 mg/kg/injection, schedule: Q04DX003 (ip), vehicle: Klucel (hydroxypropylcellulose) (HPC)

Measured: T/C

CCOC1=C(C#N)CC2(CC1)c1ccccc1-c1ccccc12
inactive: dose: 100.0 mg/kg/injection, schedule: Q04DX003 (ip), vehicle: saline with Tween-80 95 % of control | dose: 200.0 mg/kg/injection, schedule: Q04DX003 (ip), vehicle: saline with Tween-80 95 % of control | dose: 400.0 mg/kg/injection, schedule: Q04DX003 (ip), vehicle: saline with Tween-80 91 % of control

CC(/C=N/NC(=[N-])N)=N\N=C(/[NH-])N.[Ni+2]
inactive: dose: 6.25 mg/kg/injection, schedule: Q01DX009 (ip), vehicle: Klucel (hydroxypropylcellulose) (HPC) 97 % of control | [1] 97 % of control

O=S(=O)(Nc1ccccc1Cl)c1ccccc1
inactive: dose: 100.0 mg/kg/injection, schedule: Q04DX003 (ip), vehicle: gum acacia 111 % of control | dose: 200.0 mg/kg/injection, schedule: Q04DX003 (ip), vehicle: gum acacia 96 % of control | dose: 400.0 mg/kg/injection, schedule: Q04DX003 (ip), vehicle: gum acacia 111 % of control

[N-]=[N+]=NCC(=O)NCc1cnccn1
inactive: dose: 12.5 mg/kg/injection, schedule: Q01DX009 (ip), vehicle: saline 116 % of control | [2] 116 % of control | dose: 100.0 mg/kg/injection, schedule: Q01DX009 (ip), vehicle: saline 106 % of control | [3] 109 % of control | dose: 200.0 mg/kg/injection, schedule: Q01DX009 (ip), vehicle: saline 116 % of control | [4] 108 % of control | dose: 400.0 mg/kg/injection, schedule: Q01DX009 (ip), vehicle: saline 119 % of control | [5] 109 % of control

C(=Nc1ccc(/C=C\c2ccnc3ccccc23)cc1)Nc1ccc(/C=C\c2ccnc3ccccc23)cc1
inactive: dose: 12.5 mg/kg/injection, schedule: Q01DX009 (ip), vehicle: saline with Tween-80 100 % of control | [6] 107 % of control | [7] 100 % of control | dose: 200.0 mg/kg/injection, schedule: Q01DX009 (ip), vehicle: saline with Tween-80 97 % of control

C1=CC=CN(c2ccccc2)C=C1
inactive: [8] 90 % of control | [9] 105 % of control | [10] 95 % of control | dose: 200.0 mg/kg/injection, schedule: Q01DX009 (ip), vehicle: Klucel (hydroxypropylcellulose) (HPC) 105 % of control | [11] 91 % of control | [12] 100 % of control

CCCCCCCCCCCCCCCC(N)=O
inactive: dose: 12.5 mg/kg/injection, schedule: Q01DX009 (ip), vehicle: gum acacia 100 % of control | dose: 50.0 mg/kg/injection, schedule: Q01DX009 (ip), vehicle: gum acacia 91 % of control | [10] 86 % of control | [11] 90 % of control | [12] 104 % of control

OCC1OC(n2cnc3cncnc32)C(O)C1O (stereo unspecified)
inactive: dose: 0.78 mg/kg/injection, schedule: Q01DX009 (ip), vehicle: saline 97 % of control | dose: 1.56 mg/kg/injection, schedule: Q01DX009 (ip), vehicle: saline 113 % of control and 115 % of control | dose: 3.13 mg/kg/injection, schedule: Q04DX003 (ip), vehicle: saline 100 % of control | dose: 6.25 mg/kg/injection, schedule: Q04DX003 (ip), vehicle: saline 116 % of control | [2] 100 % of control

C[C@]12CCC(=O)C=C1CC[C@@H]1[C@@H]2C(=O)C[C@]2(C)C3=CC(=O)O[C@H]3C[C@@H]12
inactive: [1] 109 % of control and 110 % of control | dose: 12.5 mg/kg/injection, schedule: Q04DX003 (ip), vehicle: Klucel (hydroxypropylcellulose) (HPC) 109 % of control | dose: 25.0 mg/kg/injection, schedule: Q01DX009 (ip), vehicle: Klucel (hydroxypropylcellulose) (HPC) 118 % of control and 120 % of control | dose: 25.0 mg/kg/injection, schedule: Q04DX003 (ip), vehicle: Klucel (hydroxypropylcellulose) (HPC) 113 % of control | [8] 86 % of control and 115 % of control | dose: 50.0 mg/kg/injection, schedule: Q04DX003 (ip), vehicle: Klucel (hydroxypropylcellulose) (HPC) 122 % of control | [9] 90 % of control

CCOC(=O)c1c(NC(=O)CCC(=O)Nc2sc(C)c(C)c2C(=O)OCC)sc(C)c1C
inactive: [6] 109 % of control | [7] 90 % of control | dose: 50.0 mg/kg/injection, schedule: Q04DX003 (ip), vehicle: saline 87 % of control | dose: 100.0 mg/kg/injection, schedule: Q01DX009 (ip), vehicle: saline with Tween-80 90 % of control | [5] 91 % of control

Cc1ccc(NCC(O)CN2CCN(CC(O)CNc3ccc(C)cc3)CC2)cc1 (stereo unspecified)
inactive: dose: 100.0 mg/kg/injection, schedule: Q01DX001 (ip), vehicle: Klucel (hydroxypropylcellulose) (HPC) 104 % of control | dose: 200.0 mg/kg/injection, schedule: Q01DX001 (ip), vehicle: Klucel (hydroxypropylcellulose) (HPC) 100 % of control | dose: 400.0 mg/kg/injection, schedule: Q01DX001 (ip), vehicle: Klucel (hydroxypropylcellulose) (HPC) 86 % of control

CC(=O)c1cccc(OCC(O)CN(C(C)C)C(C)C)c1 (stereo unspecified)
inactive: [3] 104 % of control | [4] 109 % of control

CCN(CC)CCNC(=O)c1ccc(COc2ccccc2)cc1
inactive: dose: 50.0 mg/kg/injection, schedule: Q01DX005 (ip), vehicle: saline 97 % of control | dose: 100.0 mg/kg/injection, schedule: Q01DX005 (ip), vehicle: saline 111 % of control | dose: 200.0 mg/kg/injection, schedule: Q01DX005 (ip), vehicle: saline 97 % of control

From PubChem BioAssay AID328 (DTP/NCI, 2004)
